Experiments:
[1] = Liquid, Capillary tube (Ostwald / Ubbelohde) method
[2] = xn = mol fraction of the nth substance listed; details: Liquid, isochoric method, x1 = 0.1965

CCCCCCCCCCO [decan-1-ol]
[1]
Details	viscosity [mPa·s]
298.15 K, 2000 kPa	11.25
298.15 K, 3990 kPa	11.54
298.15 K, 6010 kPa	11.79
298.15 K, 8010 kPa	12.05
298.15 K, 10010 kPa	12.35
298.15 K, 13010 kPa	12.74
298.15 K, 16010 kPa	13.16
298.15 K, 19010 kPa	13.57
298.15 K, 22010 kPa	14.01
298.15 K, 25000 kPa	14.46
298.15 K, 28000 kPa	14.89
298.15 K, 29990 kPa	15.19
303.15 K, 1990 kPa	8.895
303.15 K, 4000 kPa	9.117
303.15 K, 5980 kPa	9.337
303.15 K, 8010 kPa	9.562
303.15 K, 10020 kPa	9.784
303.15 K, 12980 kPa	10.11
303.15 K, 15970 kPa	10.44
303.15 K, 19020 kPa	10.78
303.15 K, 22000 kPa	11.11
303.15 K, 24980 kPa	11.44
303.15 K, 27980 kPa	11.77
303.15 K, 30010 kPa	12
313.15 K, 2030 kPa	6.219
313.15 K, 4020 kPa	6.374
313.15 K, 6000 kPa	6.526
313.15 K, 7980 kPa	6.68
313.15 K, 9980 kPa	6.835
313.15 K, 12990 kPa	7.068
313.15 K, 15990 kPa	7.299
313.15 K, 18990 kPa	7.532
313.15 K, 22010 kPa	7.766
313.15 K, 25020 kPa	7.999
313.15 K, 28020 kPa	8.231
313.15 K, 29980 kPa	8.382
323.15 K, 2000 kPa	4.735
323.15 K, 4010 kPa	4.857
323.15 K, 6010 kPa	4.97
323.15 K, 8010 kPa	5.091
323.15 K, 9990 kPa	5.202
323.15 K, 13010 kPa	5.369
323.15 K, 16010 kPa	5.54
323.15 K, 19020 kPa	5.726
323.15 K, 22020 kPa	5.892
323.15 K, 25010 kPa	6.072
323.15 K, 28000 kPa	6.247
323.15 K, 30010 kPa	6.373

CCCCCCCC [octane] + O=C=O
mass density [kg/m3], [2]
Details	313.05 K	322.96 K	332.84 K
8000 kPa	740.9	–	–
9000 kPa	750.1	716.1	–
10000 kPa	758.3	724.1	–
11000 kPa	765.4	731.9	–
12000 kPa	771.9	739.1	–
13000 kPa	777.9	745.8	–
14000 kPa	783.5	752	–
15000 kPa	788.7	757.7	–
16000 kPa	793.6	763.1	732.9
17000 kPa	798.2	768.2	739.2
18000 kPa	802.7	772.9	745.1
19000 kPa	–	777.5	750.6
19170 kPa	807	–	–
20000 kPa	811.1	781.8	755.8
21000 kPa	815	786	–
21020 kPa	–	–	760.8
22000 kPa	818.7	789.9	–
22020 kPa	–	–	765.4
22960 kPa	–	793.6	–
22980 kPa	–	–	769.7
22990 kPa	822.2	–	–
23960 kPa	–	797.3	–
23990 kPa	–	–	773.9
24000 kPa	825.6	–	–
24550 kPa	827.5	–	–
24790 kPa	–	–	777.1
